In patent US7557085B2, “Metabolic-based methods for modulating gene expression” (Wisconsin Alumni Research Foundation, priority 2005, dated 2009):

System: actin
Experiment: QRT-PCR of hippocampal tissue from kindled rats, actin
Assay type: in vivo, rat
Settings: hippocampus, 2-DG treatment versus control
Excerpt: Values plotted are BDNF or TrkB expression over Actin using rat hippocampal cDNA from an untreated rat for a standard curve. Specifically, mRNA was extracted from hippocampus tissue from rats treated with 2-DG or untreated control rats subjected to kindling stimulation to mimic epilepsy. […] The levels of actin mRNA were not affected by 2-DG treatment. Importantly, the differences in expression of BDNF or TrkB in the absence or presence of 2DG were present after 5 ADs in association with a large difference in AD threshold between 2DG-treated and control rats (FIG. 3 lanes 5 versus 6 and 7 versus 8).

SMILES: O=CC[C@@H](O)[C@H](O)[C@H](O)CO [2-DG, 2-deoxy-D-glucose]
- levels of actin mRNA: not affected
